Experimental data: the NIST ThermoML archive (doi:10.1021/je800224k)

Conditions: Liquid

CCn1cc[n+](C)c1.F[B-](F)(F)F [1-ethyl-3-methylimidazolium tetrafluoroborate]
Conditions	mass density [kg/m3]
293.15 K, 101.33 kPa, Vibrating tube method	1284.4
313.15 K, 101.33 kPa, Vibrating tube method	1269.1
313.2 K, 10000 kPa, Bellows volumetry	1274
313.2 K, 20000 kPa, Bellows volumetry	1278
313.2 K, 30000 kPa, Bellows volumetry	1282
313.2 K, 40000 kPa, Bellows volumetry	1287
313.2 K, 50000 kPa, Bellows volumetry	1291
313.2 K, 60000 kPa, Bellows volumetry	1295
313.2 K, 70000 kPa, Bellows volumetry	1299
313.2 K, 80000 kPa, Bellows volumetry	1302
313.2 K, 90000 kPa, Bellows volumetry	1306
313.2 K, 100000 kPa, Bellows volumetry	1310
313.2 K, 110000 kPa, Bellows volumetry	1313
313.2 K, 120000 kPa, Bellows volumetry	1317
313.2 K, 130000 kPa, Bellows volumetry	1320
313.2 K, 140000 kPa, Bellows volumetry	1323
313.2 K, 150000 kPa, Bellows volumetry	1327
313.2 K, 160000 kPa, Bellows volumetry	1330
313.2 K, 170000 kPa, Bellows volumetry	1333
313.2 K, 180000 kPa, Bellows volumetry	1336
313.2 K, 190000 kPa, Bellows volumetry	1339
313.2 K, 200000 kPa, Bellows volumetry	1342
332.6 K, 10000 kPa, Bellows volumetry	1259
332.6 K, 20000 kPa, Bellows volumetry	1264
332.6 K, 30000 kPa, Bellows volumetry	1268
332.6 K, 40000 kPa, Bellows volumetry	1273
332.6 K, 50000 kPa, Bellows volumetry	1277
332.6 K, 60000 kPa, Bellows volumetry	1281
332.6 K, 70000 kPa, Bellows volumetry	1285
332.6 K, 80000 kPa, Bellows volumetry	1289
332.6 K, 90000 kPa, Bellows volumetry	1293
332.6 K, 100000 kPa, Bellows volumetry	1297
332.6 K, 110000 kPa, Bellows volumetry	1300
332.6 K, 120000 kPa, Bellows volumetry	1304
332.6 K, 130000 kPa, Bellows volumetry	1307
332.6 K, 140000 kPa, Bellows volumetry	1311
332.6 K, 150000 kPa, Bellows volumetry	1314
332.6 K, 160000 kPa, Bellows volumetry	1317
332.6 K, 170000 kPa, Bellows volumetry	1321
332.6 K, 180000 kPa, Bellows volumetry	1324
332.6 K, 190000 kPa, Bellows volumetry	1327
332.6 K, 200000 kPa, Bellows volumetry	1330
333.15 K, 101.33 kPa, Vibrating tube method	1254
352.7 K, 10000 kPa, Bellows volumetry	1244
352.7 K, 20000 kPa, Bellows volumetry	1249
352.7 K, 30000 kPa, Bellows volumetry	1254
352.7 K, 40000 kPa, Bellows volumetry	1259
352.7 K, 50000 kPa, Bellows volumetry	1263
352.7 K, 60000 kPa, Bellows volumetry	1267
352.7 K, 70000 kPa, Bellows volumetry	1272
352.7 K, 80000 kPa, Bellows volumetry	1276
352.7 K, 90000 kPa, Bellows volumetry	1280
352.7 K, 100000 kPa, Bellows volumetry	1284
352.7 K, 110000 kPa, Bellows volumetry	1287
352.7 K, 120000 kPa, Bellows volumetry	1291
352.7 K, 130000 kPa, Bellows volumetry	1295
352.7 K, 140000 kPa, Bellows volumetry	1298
352.7 K, 150000 kPa, Bellows volumetry	1302
352.7 K, 160000 kPa, Bellows volumetry	1305
352.7 K, 170000 kPa, Bellows volumetry	1309
352.7 K, 180000 kPa, Bellows volumetry	1312
352.7 K, 190000 kPa, Bellows volumetry	1315
352.7 K, 200000 kPa, Bellows volumetry	1318
353.15 K, 101.33 kPa, Vibrating tube method	1239.3
372.8 K, 10000 kPa, Bellows volumetry	1230
372.8 K, 20000 kPa, Bellows volumetry	1235
372.8 K, 30000 kPa, Bellows volumetry	1240
372.8 K, 40000 kPa, Bellows volumetry	1245
372.8 K, 50000 kPa, Bellows volumetry	1250
372.8 K, 60000 kPa, Bellows volumetry	1254
372.8 K, 70000 kPa, Bellows volumetry	1258
372.8 K, 80000 kPa, Bellows volumetry	1263
372.8 K, 90000 kPa, Bellows volumetry	1267
372.8 K, 100000 kPa, Bellows volumetry	1271
372.8 K, 110000 kPa, Bellows volumetry	1275
372.8 K, 120000 kPa, Bellows volumetry	1279
372.8 K, 130000 kPa, Bellows volumetry	1282
372.8 K, 140000 kPa, Bellows volumetry	1286
372.8 K, 150000 kPa, Bellows volumetry	1290
372.8 K, 160000 kPa, Bellows volumetry	1293
372.8 K, 170000 kPa, Bellows volumetry	1297
372.8 K, 180000 kPa, Bellows volumetry	1300
372.8 K, 190000 kPa, Bellows volumetry	1303
372.8 K, 200000 kPa, Bellows volumetry	1307
392.9 K, 10000 kPa, Bellows volumetry	1216
392.9 K, 20000 kPa, Bellows volumetry	1221
392.9 K, 30000 kPa, Bellows volumetry	1227
392.9 K, 40000 kPa, Bellows volumetry	1232
392.9 K, 50000 kPa, Bellows volumetry	1237
392.9 K, 60000 kPa, Bellows volumetry	1241
392.9 K, 70000 kPa, Bellows volumetry	1246
392.9 K, 80000 kPa, Bellows volumetry	1250
392.9 K, 90000 kPa, Bellows volumetry	1254
392.9 K, 100000 kPa, Bellows volumetry	1259
392.9 K, 110000 kPa, Bellows volumetry	1263
392.9 K, 120000 kPa, Bellows volumetry	1267
392.9 K, 130000 kPa, Bellows volumetry	1270
392.9 K, 140000 kPa, Bellows volumetry	1274
392.9 K, 150000 kPa, Bellows volumetry	1278
392.9 K, 160000 kPa, Bellows volumetry	1282
392.9 K, 170000 kPa, Bellows volumetry	1285
392.9 K, 180000 kPa, Bellows volumetry	1289
392.9 K, 190000 kPa, Bellows volumetry	1292
392.9 K, 200000 kPa, Bellows volumetry	1295
413 K, 10000 kPa, Bellows volumetry	1202
413 K, 20000 kPa, Bellows volumetry	1208
413 K, 30000 kPa, Bellows volumetry	1213
413 K, 40000 kPa, Bellows volumetry	1219
413 K, 50000 kPa, Bellows volumetry	1224
413 K, 60000 kPa, Bellows volumetry	1229
413 K, 70000 kPa, Bellows volumetry	1233
413 K, 80000 kPa, Bellows volumetry	1238
413 K, 90000 kPa, Bellows volumetry	1242
413 K, 100000 kPa, Bellows volumetry	1247
413 K, 110000 kPa, Bellows volumetry	1251
413 K, 120000 kPa, Bellows volumetry	1255
413 K, 130000 kPa, Bellows volumetry	1259
413 K, 140000 kPa, Bellows volumetry	1263
413 K, 150000 kPa, Bellows volumetry	1267
413 K, 160000 kPa, Bellows volumetry	1270
413 K, 170000 kPa, Bellows volumetry	1274
413 K, 180000 kPa, Bellows volumetry	1278
413 K, 190000 kPa, Bellows volumetry	1281
413 K, 200000 kPa, Bellows volumetry	1285
432.9 K, 10000 kPa, Bellows volumetry	1189
432.9 K, 20000 kPa, Bellows volumetry	1195
432.9 K, 30000 kPa, Bellows volumetry	1200
432.9 K, 40000 kPa, Bellows volumetry	1206
432.9 K, 50000 kPa, Bellows volumetry	1211
432.9 K, 60000 kPa, Bellows volumetry	1216
432.9 K, 70000 kPa, Bellows volumetry	1221
432.9 K, 80000 kPa, Bellows volumetry	1226
432.9 K, 90000 kPa, Bellows volumetry	1230
432.9 K, 100000 kPa, Bellows volumetry	1235
432.9 K, 110000 kPa, Bellows volumetry	1239
432.9 K, 120000 kPa, Bellows volumetry	1243
432.9 K, 130000 kPa, Bellows volumetry	1247
432.9 K, 140000 kPa, Bellows volumetry	1252
432.9 K, 150000 kPa, Bellows volumetry	1255
432.9 K, 160000 kPa, Bellows volumetry	1259
432.9 K, 170000 kPa, Bellows volumetry	1263
432.9 K, 180000 kPa, Bellows volumetry	1267
432.9 K, 190000 kPa, Bellows volumetry	1270
432.9 K, 200000 kPa, Bellows volumetry	1274
452.6 K, 10000 kPa, Bellows volumetry	1176
452.6 K, 20000 kPa, Bellows volumetry	1182
452.6 K, 30000 kPa, Bellows volumetry	1188
452.6 K, 40000 kPa, Bellows volumetry	1193
452.6 K, 50000 kPa, Bellows volumetry	1199
452.6 K, 60000 kPa, Bellows volumetry	1204
452.6 K, 70000 kPa, Bellows volumetry	1209
452.6 K, 80000 kPa, Bellows volumetry	1214
452.6 K, 90000 kPa, Bellows volumetry	1219
452.6 K, 100000 kPa, Bellows volumetry	1223
452.6 K, 110000 kPa, Bellows volumetry	1228
452.6 K, 120000 kPa, Bellows volumetry	1232
452.6 K, 130000 kPa, Bellows volumetry	1236
452.6 K, 140000 kPa, Bellows volumetry	1240
452.6 K, 150000 kPa, Bellows volumetry	1245
452.6 K, 160000 kPa, Bellows volumetry	1248
452.6 K, 170000 kPa, Bellows volumetry	1252
452.6 K, 180000 kPa, Bellows volumetry	1256
452.6 K, 190000 kPa, Bellows volumetry	1260
452.6 K, 200000 kPa, Bellows volumetry	1264
472.4 K, 10000 kPa, Bellows volumetry	1163
472.4 K, 20000 kPa, Bellows volumetry	1169
472.4 K, 30000 kPa, Bellows volumetry	1175
472.4 K, 40000 kPa, Bellows volumetry	1181
472.4 K, 50000 kPa, Bellows volumetry	1187
472.4 K, 60000 kPa, Bellows volumetry	1192
472.4 K, 70000 kPa, Bellows volumetry	1197
472.4 K, 80000 kPa, Bellows volumetry	1202
472.4 K, 90000 kPa, Bellows volumetry	1207
472.4 K, 100000 kPa, Bellows volumetry	1212
472.4 K, 110000 kPa, Bellows volumetry	1217
472.4 K, 120000 kPa, Bellows volumetry	1221
472.4 K, 130000 kPa, Bellows volumetry	1226
472.4 K, 140000 kPa, Bellows volumetry	1230
472.4 K, 150000 kPa, Bellows volumetry	1234
472.4 K, 160000 kPa, Bellows volumetry	1238
472.4 K, 170000 kPa, Bellows volumetry	1242
472.4 K, 180000 kPa, Bellows volumetry	1246
472.4 K, 190000 kPa, Bellows volumetry	1250
472.4 K, 200000 kPa, Bellows volumetry	1253
